Source: patent US20240391965A1, “STAPLED ANTIMICROBIAL PEPTIDES (STAMPS) AND USES THEREOF” (Lytica Therapeutics, Inc., priority 2021, published 2024)
In brackets after ≈: the same amount, converted by molar mass. Starred links: 1 amine or outer side, 2 acyl side, 3 side chain; linkers in the order of their positions; H or OH if unused. Positions of bridges follow the written chain, without caps; N, C: chain ends. Residues, ends and D or L forms follow the SMILES beside them. 2,2'Bipyridine(5,5'-diCH2) = c1cc(-c2ccc(C[*:2])cn2)ncc1C[*:1]; Naphthalene(2,6-diCH2) = c1cc2cc(C[*:2])ccc2cc1C[*:1]; X1 = C(=CC[*:2])C[*:1]

Tests used:
[1] = 48 hours cytotoxicity assay (CellTiter-Glo), liver toxicity; type: cell-based, human; settings: 48 hours of incubation, CellTiter-Glo; read-out: Inhibitory Concentration at 50% Cytotoxicity (IC50) Human Liver Cells (HepG2)
Method in brief: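 HepG2 cells in EMEM with 10% FBS, allowed to attach 4 h, then exposed to serially diluted StAMPs or vehicle for 48 h at 37 °C. Viability read by CellTiter-Glo luminescence.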

[2] = tested on: Klebsiella pneumoniae (K. pneumoniae); type: cell-based; settings: microbroth dilution, 20-24 hours at 37° C.
Experimental: (§1) Antimicrobial Activity Assay: The following microbroth dilution protocol was adapted from CLSI to determine the minimum inhibitory concentration (MIC) of StAMPs. Briefly, Mueller-Hinton broth (MHB) or cation-adjusted Mueller-Hinton broth (MHB II) was prepared and autoclaved. Then, a colony of bacterial cells was picked and grown overnight in broth at 37° C. and then diluted and allowed to grow again for 3-4 hours. Serial dilutions of peptide stocks in water (10 μl) were prepared using clear round-bottom polypropylene 96-well plates. Then 90 μl of bacteria in broth was added to give a final inoculum of 5×10^5 CFU/ml. The plates were then covered with porous tape to reduce evaporation and incubated for 20-24 hours at 37° C. The MIC was the minimum peptide concentration at which no visible bacterial growth was observed.

[3] = tested on: Staphylococcus aureus (S. aureus); type: cell-based; settings: microbroth dilution, 20-24 hours at 37° C.
Experimental: as §1

[4] = tested on: Acinetobacter baumannii (A. baumannii); type: cell-based; settings: microbroth dilution, 20-24 hours at 37° C.
Experimental: as §1

[5] = tested on: Escherichia coli (E. coli); type: cell-based; settings: microbroth dilution, 20-24 hours at 37° C.
Experimental: as §1

[6] = tested on: Pseudomonas aeruginosa (P. aeruginosa); type: cell-based; settings: microbroth dilution, 20-24 hours at 37° C.
Experimental: as §1

## CC[C@H](C)[C@H](NC(=O)CN)C(=O)N[C@@H](Cc1ccccc1)C(=O)N[C@@H](CO)C(=O)N[C@@H](CCCCN)C(=O)N[C@@H](CC(C)C)C(=O)N[C@@H](C)C(=O)N[C@H]1CSCc2ccc(nc2)-c2ccc(cn2)CSC[C@@H](C(=O)N[C@H](C(=O)N[C@@H](CO)C(=O)NCC(=O)N[C@@H](CC(C)C)C(=O)N[C@@H](CCCCN)C(=O)NCC(N)=O)[C@@H](C)CC)NC(=O)[C@H](CC(C)C)NC(=O)[C@H](CC(N)=O)NC(=O)[C@H](CCCCN)NC(=O)[C@H]([C@@H](C)CC)NC(=O)[C@H](CCCCN)NC(=O)[C@H](CCCCN)NC1=O [compound 66] (H-GIFSKLACKKIKNLCISGLKG-NH2; linker 8-15 via 2,2'Bipyridine(5,5'-diCH2))
[1]
  IC50: 75 µg/mL (≈ 31.2 µM)
[2]
  Minimum Inhibitory Concentration (MIC) K. pneumoniae: 16 µg/mL
[3]
  Minimum Inhibitory Concentration (MIC) S. aureus: >64 µg/mL
[4]
  Minimum Inhibitory Concentration (MIC) A. baumannii: 4 µg/mL
[5]
  Minimum Inhibitory Concentration (MIC) E. coli: 8 µg/mL
[6]
  Minimum Inhibitory Concentration (MIC) P. aeruginosa: 32 µg/mL

## CC[C@H](C)[C@H](NC(=O)CN)C(=O)N[C@@H](Cc1ccccc1)C(=O)N[C@@H](CO)C(=O)N[C@@H](CCCCN)C(=O)N[C@@H](CC(C)C)C(=O)N[C@@H](C)C(=O)NCC(=O)N[C@H]1CSCc2ccc3cc(ccc3c2)CSC[C@@H](C(=O)N[C@@H](CO)C(=O)NCC(=O)N[C@@H](CC(C)C)C(=O)N[C@@H](CCCCN)C(=O)NCC(N)=O)NC(=O)[C@H](CC(C)C)NC(=O)[C@H](CC(C)C)NC(=O)[C@H](CC(N)=O)NC(=O)[C@H](CCCCN)NC(=O)[C@H]([C@@H](C)CC)NC(=O)[C@H](CCCCN)NC1=O [compound 69] (H-GIFSKLAGCKIKNLLCSGLKG-NH2; linker 9-16 via Naphthalene(2,6-diCH2); N-terminus assumed)
[1]
  IC50: 52 µg/mL (≈ 22.6 µM)
[2]
  Minimum Inhibitory Concentration (MIC) K. pneumoniae: 32 µg/mL
[3]
  Minimum Inhibitory Concentration (MIC) S. aureus: >64 µg/mL
[4]
  Minimum Inhibitory Concentration (MIC) A. baumannii: 16 µg/mL
[5]
  Minimum Inhibitory Concentration (MIC) E. coli: 16 µg/mL
[6]
  Minimum Inhibitory Concentration (MIC) P. aeruginosa: >64 µg/mL

## CC[C@H](C)[C@H](NC(=O)CN)C(=O)N[C@@H](Cc1ccccc1)C(=O)N[C@@H](CO)C(=O)N[C@@H](CCCCN)C(=O)N[C@@H](CC(C)C)C(=O)N[C@@H](C)C(=O)NCC(=O)N[C@@H](CCCCN)C(=O)N[C@@H](CCCCN)C(=O)N[C@H](C(=O)N[C@H]1CSCc2ccc(nc2)-c2ccc(cn2)CSC[C@@H](C(=O)N[C@@H](CCCCN)C(=O)NCC(N)=O)NC(=O)CNC(=O)[C@H](CO)NC(=O)[C@H]([C@@H](C)CC)NC(=O)[C@H](CC(C)C)NC(=O)[C@H](CC(C)C)NC(=O)[C@H](CC(N)=O)NC1=O)[C@@H](C)CC [compound 80] (H-GIFSKLAGKKICNLLISGCKG-NH2; linker 12-19 via 2,2'Bipyridine(5,5'-diCH2); N-terminus assumed)
[1]
  IC50: 49 µg/mL (≈ 21 µM)
[2]
  Minimum Inhibitory Concentration (MIC) K. pneumoniae: >64 µg/mL
[3]
  Minimum Inhibitory Concentration (MIC) S. aureus: >64 µg/mL
[4]
  Minimum Inhibitory Concentration (MIC) A. baumannii: 32 µg/mL
[5]
  Minimum Inhibitory Concentration (MIC) E. coli: 32 µg/mL
[6]
  Minimum Inhibitory Concentration (MIC) P. aeruginosa: >64 µg/mL

## CC[C@H](C)[C@H](NC(=O)CN)C(=O)N[C@@H](Cc1ccccc1)C(=O)N[C@@H](CO)C(=O)N[C@@H](CCCCN)C(=O)N[C@@H](CC(C)C)C(=O)N[C@@H](C)C(=O)NCC(=O)N[C@@H](CCCCN)C(=O)N[C@@H](CCCCN)C(=O)N[C@H](C(=O)N[C@@H](CCCCN)C(=O)N[C@@H](CC(N)=O)C(=O)N[C@H]1CSCc2ccc3cc(ccc3c2)CSC[C@@H](C(N)=O)NC(=O)[C@H](CCCCN)NC(=O)[C@H](CC(C)C)NC(=O)CNC(=O)[C@H](CO)NC(=O)[C@H]([C@@H](C)CC)NC(=O)[C@H](CC(C)C)NC1=O)[C@@H](C)CC [compound 85] (H-GIFSKLAGKKIKNCLISGLKC-NH2; linker 14-21 via Naphthalene(2,6-diCH2); N-terminus assumed)
[1]
  IC50: 87 µg/mL (≈ 36.7 µM)
[2]
  Minimum Inhibitory Concentration (MIC) K. pneumoniae: 32 µg/mL
[3]
  Minimum Inhibitory Concentration (MIC) S. aureus: 64 µg/mL
[4]
  Minimum Inhibitory Concentration (MIC) A. baumannii: 4 µg/mL
[5]
  Minimum Inhibitory Concentration (MIC) E. coli: 4 µg/mL
[6]
  Minimum Inhibitory Concentration (MIC) P. aeruginosa: 16 µg/mL

## CC[C@H](C)[C@H](NC(=O)CN)C(=O)N[C@@H](Cc1ccccc1)C(=O)N[C@@H](CO)C(=O)N[C@@H](CCCCN)C(=O)N[C@@H](CC(C)C)C(=O)N[C@@H](C)C(=O)NCC(=O)N[C@@H](CCCCN)C(=O)N[C@@H](CCCCN)C(=O)N[C@H](C(=O)N[C@@H](CCCCN)C(=O)N[C@H]1CSCc2ccc(nc2)-c2ccc(cn2)CSC[C@@H](C(=O)NCC(N)=O)NC(=O)[C@H](CC(C)C)NC(=O)CNC(=O)[C@H](CO)NC(=O)[C@H]([C@@H](C)CC)NC(=O)[C@H](CC(C)C)NC(=O)[C@H](CC(C)C)NC1=O)[C@@H](C)CC [compound 81] (H-GIFSKLAGKKIKCLLISGLCG-NH2; linker 13-20 via 2,2'Bipyridine(5,5'-diCH2); N-terminus assumed)
[1]
  IC50: 57 µg/mL (≈ 24.5 µM)
[2]
  Minimum Inhibitory Concentration (MIC) K. pneumoniae: 8 µg/mL
[3]
  Minimum Inhibitory Concentration (MIC) S. aureus: >64 µg/mL
[4]
  Minimum Inhibitory Concentration (MIC) A. baumannii: 4 µg/mL
[5]
  Minimum Inhibitory Concentration (MIC) E. coli: 4 µg/mL
[6]
  Minimum Inhibitory Concentration (MIC) P. aeruginosa: 32 µg/mL

## CC[C@H](C)[C@H](NC(=O)CN)C(=O)N[C@@H](Cc1ccccc1)C(=O)N[C@@H](CO)C(=O)N[C@@H](CCCCN)C(=O)N[C@H]1CSCc2ccc3cc(ccc3c2)CSC[C@@H](C(=O)N[C@@H](CC(C)C)C(=O)N[C@@H](CC(C)C)C(=O)N[C@H](C(=O)N[C@@H](CO)C(=O)NCC(=O)N[C@@H](CC(C)C)C(=O)N[C@@H](CCCCN)C(=O)NCC(N)=O)[C@@H](C)CC)NC(=O)[C@H](CCCCN)NC(=O)[C@H]([C@@H](C)CC)NC(=O)[C@H](CCCCN)NC(=O)[C@H](CCCCN)NC(=O)CNC(=O)[C@H](C)NC1=O [compound 64] (H-GIFSKCAGKKIKCLLISGLKG-NH2; linker 6-13 via Naphthalene(2,6-diCH2))
[1]
  IC50: 53 µg/mL (≈ 22.9 µM)
[2]
  Minimum Inhibitory Concentration (MIC) K. pneumoniae: 16 µg/mL
[3]
  Minimum Inhibitory Concentration (MIC) S. aureus: >64 µg/mL
[4]
  Minimum Inhibitory Concentration (MIC) A. baumannii: 8 µg/mL
[5]
  Minimum Inhibitory Concentration (MIC) E. coli: 8 µg/mL
[6]
  Minimum Inhibitory Concentration (MIC) P. aeruginosa: >64 µg/mL

## CC[C@H](C)[C@H](NC(=O)CN)C(=O)N[C@@H](Cc1ccccc1)C(=O)N[C@@H](CO)C(=O)N[C@@H](CCCCN)C(=O)N[C@@H](CC(C)C)C(=O)N[C@@H](C)C(=O)NCC(=O)N[C@H]1CSCc2ccc(nc2)-c2ccc(cn2)CSC[C@@H](C(=O)N[C@@H](CO)C(=O)NCC(=O)N[C@@H](CC(C)C)C(=O)N[C@@H](CCCCN)C(=O)NCC(N)=O)NC(=O)[C@H](CC(C)C)NC(=O)[C@H](CC(C)C)NC(=O)[C@H](CC(N)=O)NC(=O)[C@H](CCCCN)NC(=O)[C@H]([C@@H](C)CC)NC(=O)[C@H](CCCCN)NC1=O [compound 71] (H-GIFSKLAGCKIKNLLCSGLKG-NH2; linker 9-16 via 2,2'Bipyridine(5,5'-diCH2); N-terminus assumed)
[1]
  IC50: 360 µg/mL (≈ 155 µM)
[2]
  Minimum Inhibitory Concentration (MIC) K. pneumoniae: >64 µg/mL
[3]
  Minimum Inhibitory Concentration (MIC) S. aureus: >64 µg/mL
[4]
  Minimum Inhibitory Concentration (MIC) A. baumannii: 32 µg/mL
[5]
  Minimum Inhibitory Concentration (MIC) E. coli: 64 µg/mL
[6]
  Minimum Inhibitory Concentration (MIC) P. aeruginosa: >64 µg/mL

## CC[C@H](C)[C@H](NC(=O)CN)C(=O)N[C@@H](Cc1ccccc1)C(=O)N[C@@H](CO)C(=O)N[C@@H](CCCCN)C(=O)N[C@@H](CC(C)C)C(=O)N[C@@H](C)C(=O)NCC(=O)N[C@@H](CCCCN)C(=O)N[C@@H](CCCCN)C(=O)N[C@H]1CSCc2ccc3cc(ccc3c2)CSC[C@@H](C(=O)N[C@@H](CC(C)C)C(=O)N[C@@H](CCCCN)C(=O)NCC(N)=O)NC(=O)[C@H](CO)NC(=O)[C@H]([C@@H](C)CC)NC(=O)[C@H](CC(C)C)NC(=O)[C@H](CC(C)C)NC(=O)[C@H](CC(N)=O)NC(=O)[C@H](CCCCN)NC1=O [compound 75] (H-GIFSKLAGKKCKNLLISCLKG-NH2; linker 11-18 via Naphthalene(2,6-diCH2); N-terminus assumed)
[1]
  IC50: 98 µg/mL (≈ 41.3 µM)
[2]
  Minimum Inhibitory Concentration (MIC) K. pneumoniae: 16 µg/mL
[3]
  Minimum Inhibitory Concentration (MIC) S. aureus: 64 µg/mL
[4]
  Minimum Inhibitory Concentration (MIC) A. baumannii: 4 µg/mL
[5]
  Minimum Inhibitory Concentration (MIC) E. coli: 4 µg/mL
[6]
  Minimum Inhibitory Concentration (MIC) P. aeruginosa: 16 µg/mL

## CC[C@H](C)[C@H](NC(=O)CN)C(=O)N[C@@H](Cc1ccccc1)C(=O)N[C@@H](CO)C(=O)N[C@@H](CCCCN)C(=O)N[C@@H](CC(C)C)C(=O)N[C@H]1CSCC=CCSC[C@@H](C(=O)N[C@@H](CCCCN)C(=O)N[C@@H](CC(N)=O)C(=O)N[C@@H](CC(C)C)C(=O)N[C@@H](CC(C)C)C(=O)N[C@H](C(=O)N[C@@H](CO)C(=O)NCC(=O)N[C@@H](CC(C)C)C(=O)N[C@@H](CCCCN)C(=O)NCC(=O)N[C@@H](C)C(=O)N[C@@H](CCCCN)C(=O)O)[C@@H](C)CC)NC(=O)[C@H](CCCCN)NC(=O)[C@H](CCCCN)NC(=O)CNC1=O [compound 100] (H-GIFSKLCGKKCKNLLISGLKGAK-OH; linker 7-11 via X1)
[1]
  IC50: > 200 µg/mL
[2]
  Minimum Inhibitory Concentration (MIC) K. pneumoniae: >64 µg/mL
[3]
  Minimum Inhibitory Concentration (MIC) S. aureus: >64 µg/mL
[4]
  Minimum Inhibitory Concentration (MIC) A. baumannii: 16 µg/mL
[5]
  Minimum Inhibitory Concentration (MIC) E. coli: 32 µg/mL
[6]
  Minimum Inhibitory Concentration (MIC) P. aeruginosa: >64 µg/mL
